{"source": "paper PMC10879502", "about": "“Linking ATP and allosteric sites to achieve superadditive binding with bivalent EGFR kinase inhibitors” (Communications Chemistry, 2024)", "key": {"PAK1": {"biological_target": "PAK1 (Homo sapiens, UniProt Q13153)", "assay": "KINOMEscan", "format": "binding", "settings": "1 μM"}, "TLK2": {"biological_target": "T1, TLK2 (Homo sapiens, UniProt Q86UE8)", "T1 construct": "purchased Eurofins DiscoverX Corporation", "assay": "KINOMEscan", "format": "binding", "settings": "1 μM"}, "ALK(L1196M)": {"biological_target": "ALK(L1196M) (Homo sapiens, UniProt Q9UM73, L1196M)", "assay": "KINOMEscan", "format": "binding", "settings": "1 μM"}, "MST4": {"biological_target": "T2, MST4 (Homo sapiens, UniProt Q9P289)", "T2 construct": "purchased Eurofins DiscoverX Corporation", "assay": "KINOMEscan", "format": "binding", "settings": "1 μM"}, "ULK3": {"biological_target": "ULK3 (Homo sapiens, UniProt Q6PHR2)", "assay": "KINOMEscan", "format": "binding", "settings": "1 μM"}, "[1]": {"biological_target": "RSK2(Kin.Dom.2-C-terminal) (Homo sapiens, UniProt P51812)", "assay": "KINOMEscan", "format": "binding", "settings": "1 μM"}, "BTK": {"biological_target": "T3, BTK (Homo sapiens, UniProt Q06187)", "T3 construct": "purchased Eurofins DiscoverX Corporation (KINOMEscan)", "assay": "KINOMEscan", "format": "binding", "settings": "1 μM"}, "PRKD2": {"biological_target": "PRKD2 (Homo sapiens, UniProt Q9BZL6)", "sequence (Q9BZL6 whole entry)": "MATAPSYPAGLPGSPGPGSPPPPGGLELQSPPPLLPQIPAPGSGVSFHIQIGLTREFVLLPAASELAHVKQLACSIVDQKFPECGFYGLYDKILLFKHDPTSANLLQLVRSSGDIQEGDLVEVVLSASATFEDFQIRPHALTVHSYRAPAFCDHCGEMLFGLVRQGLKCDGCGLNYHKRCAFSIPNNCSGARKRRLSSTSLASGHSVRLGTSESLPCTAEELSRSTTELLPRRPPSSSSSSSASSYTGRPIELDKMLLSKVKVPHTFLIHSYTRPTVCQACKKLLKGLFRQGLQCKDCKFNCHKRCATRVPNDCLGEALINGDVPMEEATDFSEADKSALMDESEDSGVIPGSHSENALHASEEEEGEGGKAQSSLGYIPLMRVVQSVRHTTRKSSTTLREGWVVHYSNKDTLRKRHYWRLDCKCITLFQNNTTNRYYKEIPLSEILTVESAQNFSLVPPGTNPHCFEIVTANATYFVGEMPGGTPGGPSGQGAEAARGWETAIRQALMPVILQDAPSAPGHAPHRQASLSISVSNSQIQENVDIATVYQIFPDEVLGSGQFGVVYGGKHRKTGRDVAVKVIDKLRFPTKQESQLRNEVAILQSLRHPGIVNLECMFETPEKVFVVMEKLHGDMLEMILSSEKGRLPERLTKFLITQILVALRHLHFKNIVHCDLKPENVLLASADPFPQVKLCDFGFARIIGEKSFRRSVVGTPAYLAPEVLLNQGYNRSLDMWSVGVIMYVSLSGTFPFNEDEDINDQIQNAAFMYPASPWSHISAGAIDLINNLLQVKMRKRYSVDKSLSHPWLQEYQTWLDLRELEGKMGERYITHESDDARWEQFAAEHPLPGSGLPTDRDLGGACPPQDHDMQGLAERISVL", "assay": "KINOMEscan", "format": "binding", "settings": "1 μM"}, "MYLK4": {"biological_target": "T4, MYLK4 (Homo sapiens, UniProt Q86YV6)", "T4 construct": "purchased Eurofins DiscoverX Corporation", "assay": "KINOMEscan", "format": "binding", "settings": "1 μM"}, "ULK2": {"biological_target": "ULK2 (Homo sapiens, UniProt Q8IYT8)", "sequence (Q8IYT8 whole entry)": "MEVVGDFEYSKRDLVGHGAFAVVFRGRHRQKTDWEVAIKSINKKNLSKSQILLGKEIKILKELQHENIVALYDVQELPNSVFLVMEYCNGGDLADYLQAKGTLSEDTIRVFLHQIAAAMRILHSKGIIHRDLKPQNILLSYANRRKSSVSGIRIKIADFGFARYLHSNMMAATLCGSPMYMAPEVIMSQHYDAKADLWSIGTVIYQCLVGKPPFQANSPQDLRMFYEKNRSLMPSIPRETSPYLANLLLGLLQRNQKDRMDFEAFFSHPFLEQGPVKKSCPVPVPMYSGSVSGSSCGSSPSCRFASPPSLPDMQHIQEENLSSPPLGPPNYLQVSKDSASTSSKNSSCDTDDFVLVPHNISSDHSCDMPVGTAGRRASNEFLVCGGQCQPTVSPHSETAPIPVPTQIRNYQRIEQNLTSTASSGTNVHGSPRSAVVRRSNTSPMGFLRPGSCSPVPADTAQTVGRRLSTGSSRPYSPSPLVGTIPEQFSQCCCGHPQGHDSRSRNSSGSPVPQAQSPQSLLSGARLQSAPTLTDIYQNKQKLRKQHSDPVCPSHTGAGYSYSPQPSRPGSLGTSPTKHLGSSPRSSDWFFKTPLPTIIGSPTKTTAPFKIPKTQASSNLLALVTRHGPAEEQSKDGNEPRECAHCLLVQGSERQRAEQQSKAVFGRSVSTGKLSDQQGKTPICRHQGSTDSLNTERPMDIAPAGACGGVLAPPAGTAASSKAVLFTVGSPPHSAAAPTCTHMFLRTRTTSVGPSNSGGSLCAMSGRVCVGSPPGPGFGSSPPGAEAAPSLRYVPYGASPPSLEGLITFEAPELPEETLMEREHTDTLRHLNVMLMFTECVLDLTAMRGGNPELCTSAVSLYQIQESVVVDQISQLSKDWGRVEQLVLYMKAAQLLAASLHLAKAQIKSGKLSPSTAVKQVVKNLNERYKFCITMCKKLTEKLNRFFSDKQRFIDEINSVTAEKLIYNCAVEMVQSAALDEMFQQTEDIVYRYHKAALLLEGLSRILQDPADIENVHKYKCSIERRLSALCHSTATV", "assay": "KINOMEscan", "format": "binding", "settings": "1 μM"}, "AMPK-alpha1": {"biological_target": "AMPK-alpha1 (Homo sapiens, UniProt Q13131)", "assay": "KINOMEscan", "format": "binding", "settings": "1 μM"}, "SGK2": {"biological_target": "SGK2 (Homo sapiens, UniProt Q9HBY8)", "assay": "KINOMEscan", "format": "binding", "settings": "1 μM"}, "PCTK3": {"biological_target": "PCTK3 (Homo sapiens, UniProt Q07002)", "assay": "KINOMEscan", "format": "binding", "settings": "1 μM"}, "WEE1": {"biological_target": "WEE1 (Homo sapiens, UniProt P30291)", "assay": "KINOMEscan", "format": "binding", "settings": "1 μM"}, "p38-beta": {"biological_target": "p38-beta (Homo sapiens, UniProt Q15759)", "sequence (Q15759 whole entry)": "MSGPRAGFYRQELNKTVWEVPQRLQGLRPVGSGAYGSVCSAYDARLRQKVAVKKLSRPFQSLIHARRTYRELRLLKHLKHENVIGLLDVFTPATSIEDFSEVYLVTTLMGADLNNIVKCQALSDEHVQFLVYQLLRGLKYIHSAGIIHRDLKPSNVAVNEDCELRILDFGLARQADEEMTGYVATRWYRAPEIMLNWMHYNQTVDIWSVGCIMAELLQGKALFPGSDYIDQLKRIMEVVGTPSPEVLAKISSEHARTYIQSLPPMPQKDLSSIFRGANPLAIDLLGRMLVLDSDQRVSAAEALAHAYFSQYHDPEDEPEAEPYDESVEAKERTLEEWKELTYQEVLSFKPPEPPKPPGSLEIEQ", "assay": "KINOMEscan", "format": "binding", "settings": "1 μM"}, "PIK3CB": {"biological_target": "PIK3CB (Homo sapiens, UniProt P42338)", "assay": "KINOMEscan", "format": "binding", "settings": "1 μM"}, "CSNK2A1": {"biological_target": "T5, CSNK2A1 (Homo sapiens, UniProt P68400)", "T5 construct": "purchased Eurofins DiscoverX Corporation", "assay": "KINOMEscan", "format": "binding", "settings": "1 μM"}, "MTOR": {"biological_target": "T6, MTOR (Homo sapiens, UniProt P42345)", "T6 construct": "purchased Eurofins DiscoverX Corporation", "assay": "KINOMEscan", "format": "binding", "settings": "1 μM"}, "NIK": {"biological_target": "NIK (Homo sapiens, UniProt Q99558)", "sequence (Q99558 whole entry)": "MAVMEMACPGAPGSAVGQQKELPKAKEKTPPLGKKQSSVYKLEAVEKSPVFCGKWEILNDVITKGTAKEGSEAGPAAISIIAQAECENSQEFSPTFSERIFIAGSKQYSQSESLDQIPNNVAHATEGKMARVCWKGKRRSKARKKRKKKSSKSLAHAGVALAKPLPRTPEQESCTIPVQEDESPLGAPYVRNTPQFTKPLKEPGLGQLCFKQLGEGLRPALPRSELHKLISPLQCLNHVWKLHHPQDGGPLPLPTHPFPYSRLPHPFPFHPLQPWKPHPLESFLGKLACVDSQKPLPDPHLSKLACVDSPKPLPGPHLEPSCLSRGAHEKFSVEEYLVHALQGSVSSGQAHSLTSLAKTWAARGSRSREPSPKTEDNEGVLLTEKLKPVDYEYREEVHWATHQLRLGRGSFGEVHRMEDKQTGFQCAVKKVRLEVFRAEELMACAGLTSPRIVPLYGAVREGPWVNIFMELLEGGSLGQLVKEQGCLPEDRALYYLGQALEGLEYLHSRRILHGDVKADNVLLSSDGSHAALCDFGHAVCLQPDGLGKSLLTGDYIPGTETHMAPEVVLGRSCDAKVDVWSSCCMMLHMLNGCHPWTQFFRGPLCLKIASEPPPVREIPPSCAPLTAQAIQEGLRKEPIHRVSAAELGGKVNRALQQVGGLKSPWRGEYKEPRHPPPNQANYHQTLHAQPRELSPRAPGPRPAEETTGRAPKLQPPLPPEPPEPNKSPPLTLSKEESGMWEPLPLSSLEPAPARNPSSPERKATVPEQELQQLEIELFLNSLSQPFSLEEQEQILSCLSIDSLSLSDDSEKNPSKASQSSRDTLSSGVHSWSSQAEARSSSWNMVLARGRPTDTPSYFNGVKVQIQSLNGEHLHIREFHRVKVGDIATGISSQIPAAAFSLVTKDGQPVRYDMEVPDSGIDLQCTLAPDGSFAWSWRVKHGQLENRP", "assay": "KINOMEscan", "format": "binding", "settings": "1 μM"}, "p38-alpha": {"biological_target": "p38-alpha (Homo sapiens, UniProt Q16539)", "assay": "KINOMEscan", "format": "binding", "settings": "1 μM"}, "CDK2": {"biological_target": "CDK2 (Homo sapiens, UniProt P24941)", "assay": "KINOMEscan", "format": "binding", "settings": "1 μM"}, "[2]": {"tested_on": "EGFR phosphorylation (pY1068) in H3255 (LR) cells", "assay": "Western blot", "format": "cell-based, human", "settings": "H3255, 6 h", "procedure": "(§1) H1975, H3255, H3255GR and HCC827 lung adenocarcinoma cells (obtained from Dr. Pasi Jänne in Dana-Farber Cancer Institute, 2022) were cultured in RPMI 1640 media (Corning, 1004-CV) supplemented with 10% FBS (Tissue Culture Biologicals, 35-010-CV) and 1% penicillin-streptomycin (P/S, Corning, 30-002-CI). All cell lines were tested negative for Mycoplasma using Myco-Sniff-Rapid™ Mycoplasma Luciferase Detection Kit Plus PCR Primer Set (MP biomedicals, 0930504-CF) and were passaged and/or used for no longer than 4 weeks for all experiments H1975 and HCC-827 cells were seeded in 6-well plates with 400,000 cells per well and incubated overnight. H3255 and H3255GR cells were seeded in 12-well plates with 200,000 cells per well and were grown to confluency after 48 h. Culture medium was removed, cells washed with PBS, and lysed with lysis buffer containing 5 M NaCl, 1 M TRIS pH 8.0, 10% SDS, 10% Triton X-100 and a tablet of protease and phosphatase inhibitor. Protein lysate concentration was analyzed using Pierce BCA kit (ThermoFisher, 23225). Protein samples (10 µg) were resolved on hand-cast Criterion Tris-HCl protein gels. Primary antibodies used; phospho-EGFR (Tyr1068; #2234, 1:1,000), EGFR (#4267; 1:1,000), phospho-AKT (Ser473; #4060, 1:1,000), AKT (#9272, 1:1,000), phospho-ERK1/2 (Thr202/Tyr204; #4370, 1:1,000), and ERK1/2 (#4695, 1:1,000) antibodies; were purchased from Cell Signaling Technology. Secondary Goat anti-rabbit IgG starbright blue 700 (Biorad, 64484700) and Anti-tubulin hFAB Rhodamine Tubulin (Bio-Rad, 64512248). Western blots were visualized with the ChemiDoc MP imager (Bio-Rad) utilizing the Image Lab Touch Software (version 2.4.0.03). All Western blot images are representatives of at least 3 independent replicate experiments."}, "[3]": {"tested_on": "EGFR phosphorylation (pY1068) in H3255GR (LRTM) cells", "assay": "Western blot", "format": "cell-based, human", "settings": "6 h", "procedure": "as §1"}, "[4]": {"tested_on": "EGFR phosphorylation (pY1068) in HCC827 (exon19 delE746-A750) cells", "assay": "Western blot", "format": "cell-based, human", "settings": "HCC827, 6 h", "procedure": "as §1"}, "EPHA3": {"biological_target": "EPHA3 (Homo sapiens, UniProt P29320)", "assay": "KINOMEscan", "format": "binding", "settings": "1 μM"}, "CAMK2G": {"biological_target": "T7, CAMK2G (Homo sapiens, UniProt Q13555)", "T7 construct": "purchased Eurofins DiscoverX Corporation (KINOMEscan)", "assay": "KINOMEscan", "format": "binding", "settings": "1 μM"}, "PDGFRA": {"biological_target": "PDGFRA (Homo sapiens, UniProt P16234)", "sequence (P16234 24-1089)": "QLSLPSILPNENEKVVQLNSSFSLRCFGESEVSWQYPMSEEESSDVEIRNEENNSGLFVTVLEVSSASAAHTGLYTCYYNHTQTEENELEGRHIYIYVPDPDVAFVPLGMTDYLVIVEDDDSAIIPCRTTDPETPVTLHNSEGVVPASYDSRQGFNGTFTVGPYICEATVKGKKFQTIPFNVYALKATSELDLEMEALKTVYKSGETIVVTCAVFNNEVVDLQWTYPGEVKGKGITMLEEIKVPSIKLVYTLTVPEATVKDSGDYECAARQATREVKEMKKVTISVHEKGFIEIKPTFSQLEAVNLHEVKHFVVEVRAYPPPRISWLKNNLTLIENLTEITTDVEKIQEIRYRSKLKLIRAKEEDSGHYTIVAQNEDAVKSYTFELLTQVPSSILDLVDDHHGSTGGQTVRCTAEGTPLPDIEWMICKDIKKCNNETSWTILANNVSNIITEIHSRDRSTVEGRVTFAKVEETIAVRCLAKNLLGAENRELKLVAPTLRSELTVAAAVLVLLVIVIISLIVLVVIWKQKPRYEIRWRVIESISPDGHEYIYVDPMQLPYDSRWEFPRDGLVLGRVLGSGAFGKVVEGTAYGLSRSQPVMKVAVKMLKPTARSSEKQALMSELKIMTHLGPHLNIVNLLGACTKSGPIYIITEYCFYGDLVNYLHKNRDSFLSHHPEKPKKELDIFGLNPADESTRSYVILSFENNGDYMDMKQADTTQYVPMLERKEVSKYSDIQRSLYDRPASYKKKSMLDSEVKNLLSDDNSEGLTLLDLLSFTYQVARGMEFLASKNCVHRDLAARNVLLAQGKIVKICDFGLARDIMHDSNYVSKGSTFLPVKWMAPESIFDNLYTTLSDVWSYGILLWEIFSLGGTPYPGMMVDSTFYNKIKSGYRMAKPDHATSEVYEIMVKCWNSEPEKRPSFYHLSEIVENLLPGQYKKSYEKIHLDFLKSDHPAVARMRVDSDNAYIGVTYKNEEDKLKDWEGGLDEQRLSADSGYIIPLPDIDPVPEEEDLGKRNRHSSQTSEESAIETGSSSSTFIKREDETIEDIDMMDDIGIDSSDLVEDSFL", "assay": "KINOMEscan", "format": "binding", "settings": "1 μM"}, "ADCK4": {"biological_target": "ADCK4 (Homo sapiens, UniProt Q96D53)", "sequence (Q96D53 whole entry)": "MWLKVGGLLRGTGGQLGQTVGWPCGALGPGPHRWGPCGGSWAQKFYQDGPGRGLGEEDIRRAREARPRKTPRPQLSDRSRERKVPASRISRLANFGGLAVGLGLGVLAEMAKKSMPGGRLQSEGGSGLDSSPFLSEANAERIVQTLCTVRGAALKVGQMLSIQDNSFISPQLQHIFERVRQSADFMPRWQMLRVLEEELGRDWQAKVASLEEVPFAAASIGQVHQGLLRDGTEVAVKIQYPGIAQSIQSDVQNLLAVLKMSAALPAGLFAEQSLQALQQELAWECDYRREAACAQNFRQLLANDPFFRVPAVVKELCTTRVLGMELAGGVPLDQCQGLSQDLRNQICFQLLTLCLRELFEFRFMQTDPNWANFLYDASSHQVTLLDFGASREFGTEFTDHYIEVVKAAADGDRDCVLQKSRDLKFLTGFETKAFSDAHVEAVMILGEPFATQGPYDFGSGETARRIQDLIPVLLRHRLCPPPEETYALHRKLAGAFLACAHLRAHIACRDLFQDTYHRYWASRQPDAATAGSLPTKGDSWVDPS", "assay": "KINOMEscan", "format": "binding", "settings": "1 μM"}, "ACVR1B": {"biological_target": "ACVR1B (Homo sapiens, UniProt P36896)", "assay": "KINOMEscan", "format": "binding", "settings": "1 μM"}, "MYO3B": {"biological_target": "T8, MYO3B (Homo sapiens, UniProt Q8WXR4)", "T8 construct": "purchased Eurofins DiscoverX Corporation", "assay": "KINOMEscan", "format": "binding", "settings": "1 μM"}, "LZK": {"biological_target": "T9, LZK (Homo sapiens, UniProt O43283)", "T9 construct": "purchased Eurofins DiscoverX Corporation", "assay": "KINOMEscan", "format": "binding", "settings": "1 μM"}}}
{"compound": "C=CC(=O)Nc1ccc(OC)c(Nc2cc(-c3[nH]c(CC)nc3-c3cccc(NC(=O)c4cccc5c4NC(=O)c4ccccc4N5)c3)ccn2)c1", "note": "[Compound 4]", "values": [{"measurement": "POC", "setting": "PAK1", "value": "100% of control"}, {"measurement": "POC", "setting": "TLK2", "value": "87% of control"}, {"measurement": "POC", "setting": "ALK(L1196M)", "value": "89% of control"}, {"measurement": "POC", "setting": "MST4", "value": "94% of control"}, {"measurement": "POC", "setting": "ULK3", "value": "100% of control"}, {"measurement": "POC", "setting": "[1]", "value": "100% of control"}, {"measurement": "POC", "setting": "BTK", "value": "54% of control"}, {"measurement": "POC", "setting": "PRKD2", "value": "62% of control"}, {"measurement": "POC", "setting": "MYLK4", "value": "95% of control"}, {"measurement": "POC", "setting": "ULK2", "value": "80% of control"}, {"measurement": "POC", "setting": "AMPK-alpha1", "value": "81% of control"}, {"measurement": "POC", "setting": "SGK2", "value": "83% of control"}, {"measurement": "POC", "setting": "PCTK3", "value": "93% of control"}, {"measurement": "POC", "setting": "WEE1", "value": "85% of control"}, {"measurement": "POC", "setting": "p38-beta", "value": "59% of control"}, {"measurement": "POC", "setting": "PIK3CB", "value": "90% of control"}, {"measurement": "POC", "setting": "CSNK2A1", "value": "100% of control"}, {"measurement": "POC", "setting": "MTOR", "value": "100% of control"}, {"measurement": "POC", "setting": "NIK", "value": "100% of control"}, {"measurement": "POC", "setting": "p38-alpha", "value": "46% of control"}, {"measurement": "POC", "setting": "CDK2", "value": "95% of control"}, {"measurement": "suppression of EGFR pY1068 phosphorylation", "setting": "[2]", "value": "analogous suppression of EGFR pY1068 phosphorylation"}, {"measurement": "suppression of EGFR pY1068 phosphorylation", "setting": "[3]", "value": "analogous suppression of EGFR pY1068 phosphorylation"}, {"measurement": "suppression of EGFR pY1068 phosphorylation", "setting": "[4]", "value": "analogous suppression of EGFR pY1068 phosphorylation"}, {"measurement": "POC", "setting": "EPHA3", "value": "81% of control"}, {"measurement": "POC", "setting": "CAMK2G", "value": "100% of control"}, {"measurement": "POC", "setting": "PDGFRA", "value": "69% of control"}, {"measurement": "POC", "setting": "ADCK4", "value": "85% of control"}, {"measurement": "POC", "setting": "ACVR1B", "value": "85% of control"}, {"measurement": "POC", "setting": "MYO3B", "value": "31% of control"}, {"measurement": "POC", "setting": "LZK", "value": "90% of control"}]}
